Experimental data as given in patent publication US20090247554A1, “KINASE INHIBITORS” (TAKEDA SAN DIEGO, INC., priority 2006, published 2009).

target: T1, Aurora A Kinase (Homo sapiens, UniProt O14965); assay: Determination of inhibition of AIK (Aurora A kinase) by direct fluorescence polarization (IMAP); format: biochemical; details: read-out: IC50 of Exemplified Compounds Against Aurora A Kinase
T1 sequence (O14965 1-403): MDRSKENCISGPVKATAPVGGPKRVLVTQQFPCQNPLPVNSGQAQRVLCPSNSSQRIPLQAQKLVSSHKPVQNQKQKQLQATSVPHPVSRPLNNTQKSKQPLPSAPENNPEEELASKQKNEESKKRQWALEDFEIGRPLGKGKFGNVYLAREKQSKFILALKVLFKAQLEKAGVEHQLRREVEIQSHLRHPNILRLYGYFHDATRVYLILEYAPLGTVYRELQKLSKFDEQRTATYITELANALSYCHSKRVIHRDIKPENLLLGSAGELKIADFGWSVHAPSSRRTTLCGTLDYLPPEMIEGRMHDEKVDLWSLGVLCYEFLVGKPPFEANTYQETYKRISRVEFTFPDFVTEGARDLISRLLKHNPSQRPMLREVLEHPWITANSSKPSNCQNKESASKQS
Method: A. Determination of Inhibition of AIK
The inhibitory properties of compounds relative to AIK may be determined by the Direct Fluorescence Polarization detection method (FP) using a Greiner small volume black 384-well-plate format under the following reaction conditions: 50 mM Hepes pH 7.3, 10 mM MgCl2, 10 mM NaCl, 1 mM DTT, 0.01% Brij35, 100 nM Fluorescein-LRRASLG peptide (provided by SYNPEP), 5% DMSO, 2.5 uM ATP. Detection of the reaction product is performed by addition of IMAP binding reagent (Molecular Devices). Reaction product may be determined quantitatively by FP using an Analyst HT plate reader (Molecular Devices) with an excitation wavelength at 485 nm and emission at 530 nm and using a Fluorescein 505 dichroic mirror.
The assay reaction may be initiated as follows: 2 ul of (3×) 300 nM Fl-Peptide/7.5 uM ATP was added to each well of the plate, followed by the addition of 2 ul of (3×) inhibitor (2.5 fold serial dilutions for 11 data points for each inhibitor) containing 15% DMSO. 2 ul of (3×) 7.5 nM AIK solution may be added to initiate the reaction (final enzyme concentration was 2.5 nM for AIK). The reaction mixture may then be incubated at room temperature for 45 min, and quenched and developed by addition of 20 ul of 1 to 400 diluted IMAP binding reagent in 1× proprietary IMAP binding buffer. Fluorescence polarization readings of the resulting reaction mixtures may be measured after a 60-minute incubation at room temperature.
IC50 values may be calculated by non-linear curve fitting of the compound concentrations and fluorescent polarization values to the standard IC50 equation.

IC50, ≤ 50 nM:
CCS(=O)(=O)n1ccc2ccc(-c3nc(Nc4cc(C)[nH]n4)c4cc(C)sc4n3)cc21 [Example 3, 2-(1-(ethylsulfonyl)-1H-indol-6-yl)-6-methyl-N-(5-methyl-1H-pyrazol-3-yl)thieno[2,3-d]pyrimidin-4-amine]
CCS(=O)(=O)n1cc(CN(C)C)c2ccc(-c3nc(Nc4cc(C)[nH]n4)c4cc(C)sc4n3)cc21 [Example 4, 2-(3-((dimethylamino)methyl)-1-(ethylsulfonyl)-1H-indol-6-yl)-6-methyl-N-(5-methyl-1H-pyrazol-3-yl)thieno[2,3-d]pyrimidin-4-amine]
CCS(=O)(=O)c1cccc(-c2nc(Nc3cc(C)[nH]n3)c3cscc3n2)c1 [Example 5, [2-(3-Ethanesulfonyl-phenyl)-thieno[3,4-d]pyrimidin-4-yl]-(5-methyl-1H-pyrazol-3-yl)-amine]
CCS(=O)(=O)n1ccc2ccc(-c3nc(Nc4cc(C)[nH]n4)c4cscc4n3)cc21 [Example 6, [2-(1-Ethanesulfonyl-1H-indol-6-yl)-thieno[3,4-d]pyrimidin-4-yl]-(5-methyl-1H-pyrazol-3-yl)-amine]
CCS(=O)(=O)c1cccc(-c2nc(Nc3cc(C)[nH]n3)c3cc(C)sc3n2)c1 [Example 7, 2-(3-(ethylsulfonyl)phenyl)-6-methyl-N-(5-methyl-1H-pyrazol-3-yl)thieno[2,3-d]pyrimidin-4-amine]
Cc1cc(Nc2nc(Sc3ccc(NC(=O)C4CC4)cc3)nc3sc(C)cc23)n[nH]1 [Example 8, N-(4-(6-Methyl-4-(5-methyl-1H-pyrazol-3-ylamino)thieno[2,3-d]pyrimidin-2-ylthio)phenyl)cyclopropanecarboxamide]
